Test results published in the supplement of paper PMC11061612.

What was measured:
Assay in all cases: combination Emax (second highest fraction inhibited in the dose matrix, 72 h); higher = more inhibition; extreme values may be limits of the assay
[1] = system: COLO-824 (Breast Carcinoma)
Method in brief: (§1)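 Bliss excess equals the observed combination effect minus the expected value EA + EB − EA·EB, where EA and EB are the effects of each agent alone. Combination Emax is the second-highest inhibition within the matrix. Inhibition was scaled from CellTiter-Glo 2.0 luminescence, with 0 set by vehicle wells and 1 by blank wells, after 72 hours of two-drug dosing of cells plated in 1536-well plates.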

[2] = system: NY (Osteosarcoma)
Method in brief: as §1

[3] = system: CCK-81 (Colorectal Carcinoma)
Method in brief: as §1

[4] = system: SK-MG-1 (Low Grade Glioma)
Method in brief: as §1

[5] = system: GI-ME-N (Neuroblastoma)
Method in brief: as §1

[6] = system: LN-405 (Glioblastoma)
Method in brief: as §1

[7] = system: NCI-H64 (Small Cell Lung Carcinoma)
Method in brief: as §1

[8] = system: CAPAN-2 (Pancreatic Carcinoma)
Method in brief: as §1

[9] = system: Hs-445 (Non-Cancerous)
Method in brief: as §1

[10] = system: A549 (Lung Adenocarcinoma)
Method in brief: as §1

[11] = system: U-2-OS (Osteosarcoma)
Method in brief: as §1

[12] = system: OS-RC-2 (Kidney Carcinoma)
Method in brief: as §1

[13] = system: FU97 (Gastric Carcinoma)
Method in brief: as §1

[14] = system: VCaP (Prostate Carcinoma)
Method in brief: as §1

[15] = system: NCI-H2141 (Small Cell Lung Carcinoma)
Method in brief: as §1

[16] = system: PANC-10-05 (Pancreatic Carcinoma)
Method in brief: as §1

[17] = system: NCI-H1693 (Lung Adenocarcinoma)
Method in brief: as §1

[18] = system: ECC10 (Gastric Carcinoma)
Method in brief: as §1

[19] = system: ARH-77 (Non-Cancerous)
Method in brief: as §1

[20] = system: SK-MES-1 (Squamous Cell Lung Carcinoma)
Method in brief: as §1

SMILES	combination Emax [1]	combination Emax [2]	combination Emax [3]	combination Emax [4]	combination Emax [5]	combination Emax [6]	combination Emax [7]	combination Emax [8]	combination Emax [9]	combination Emax [10]	combination Emax [11]	combination Emax [12]	combination Emax [13]	combination Emax [14]	combination Emax [15]	combination Emax [16]	combination Emax [17]	combination Emax [18]	combination Emax [19]	combination Emax [20]
C=CCn1c(=O)c2cnc(Nc3ccc(N4CCN(C)CC4)cc3)nc2n1-c1cccc(C(C)(C)O)n1 [AZD1775] + C1CN(CCC1(C(=O)N[C@@H](CCO)C2=CC=C(C=C2)Cl)N)C3=NC=NC4=C3C=CN4 [Capivasertib] (first compound max 3 µM, partner max 3 µM)	0.79	0.737	0.85	0.591	0.451	0.49	0.92	0.513	0.855	0.664	0.665	0.406	0.471	0.647	0.641	0.594	0.449	0.746	0.983	0.781
C=CCn1c(=O)c2cnc(Nc3ccc(N4CCN(C)CC4)cc3)nc2n1-c1cccc(C(C)(C)O)n1 [AZD1775] + C[C@@H]1COCCN1C2=NC(=NC(=C2)C3(CC3)[S@](=N)(=O)C)C4=C5C=CNC5=NC=C4 [AZD6738] (first compound max 1 µM, partner max 10 µM)	0.851	0.665	0.944	0.702	0.548	0.464	0.936	0.486	0.914	0.829	0.852	0.453	0.373	0.602	0.675	0.513	0.331	0.843	1	0.695
C=CCn1c(=O)c2cnc(Nc3ccc(N4CCN(C)CC4)cc3)nc2n1-c1cccc(C(C)(C)O)n1 [AZD1775] + O=C(c1cc(Cc2n[nH]c(=O)c3ccccc23)ccc1F)N1CCN(C(=O)C2CC2)CC1 [Olaparib] (first compound max 1 µM, partner max 10 µM)	0.685	0.578	0.894	0.572	0.337	0.176	0.869	0.394	0.899	0.458	0.637	0.298	0.281	0.631	0.528	0.465	0.288	0.796	0.929	0.5
CCN(CCO)CCCOc1ccc2c(Nc3cc(CC(=O)Nc4cccc(F)c4)[nH]n3)ncnc2c1 [AZD2811] + C=CCn1c(=O)c2cnc(Nc3ccc(N4CCN(C)CC4)cc3)nc2n1-c1cccc(C(C)(C)O)n1 [AZD1775] (first compound max 1 µM, partner max 1 µM)	0.813	0.527	0.849	0.455	0.29	0.199	0.813	0.299	0.882	0.599	0.628	0.305	0.219	0.558	0.502	0.354	0.225	0.898	0.95	0.537
CCN(CCO)CCCOc1ccc2c(Nc3cc(CC(=O)Nc4cccc(F)c4)[nH]n3)ncnc2c1 [AZD2811] + C[C@@H]1COCCN1C2=NC(=NC(=C2)C3(CC3)[S@](=N)(=O)C)C4=C5C=CNC5=NC=C4 [AZD6738] (first compound max 1 µM, 7x7, partner max 10 µM)	0.802	0.619	0.891	0.515	0.552	0.46	0.781	0.29	0.832	0.775	0.642	0.429	0.373	0.289	0.502	0.389	0.232	0.876	0.941	0.668
CCN(CCO)CCCOc1ccc2c(Nc3cc(CC(=O)Nc4cccc(F)c4)[nH]n3)ncnc2c1 [AZD2811] + O=C(c1cc(Cc2n[nH]c(=O)c3ccccc23)ccc1F)N1CCN(C(=O)C2CC2)CC1 [Olaparib] (first compound max 1 µM, 7x7, partner max 10 µM)	0.797	0.169	0.254	0.405	0.196	0.192	0.434	0.184	0.426	0.58	0.219	0.178	0.332	0.224	0.307	0.181	0.236	0.835	0.474	0.271
CN(CCO)CC[C@H](CSc1ccccc1)Nc1ccc(S(=O)(=O)NC(=O)c2ccc(N3CCC([C@@H](O)c4ccccc4-c4ccc(Cl)cc4)CC3)cc2)cc1S(=O)(=O)C(F)(F)F [AZD4320] + C=CCn1c(=O)c2cnc(Nc3ccc(N4CCN(C)CC4)cc3)nc2n1-c1cccc(C(C)(C)O)n1 [AZD1775] (first compound max 1 µM, partner max 1 µM)	1	0.793	0.775	0.91	0.334	0.379	1	0.688	1	0.384	0.782	0.337	0.454	0.717	1	0.481	0.355	1	1	0.797
CN(CCO)CC[C@H](CSc1ccccc1)Nc1ccc(S(=O)(=O)NC(=O)c2ccc(N3CCC([C@@H](O)c4ccccc4-c4ccc(Cl)cc4)CC3)cc2)cc1S(=O)(=O)C(F)(F)F [AZD4320] + CCN(CCO)CCCOc1ccc2c(Nc3cc(CC(=O)Nc4cccc(F)c4)[nH]n3)ncnc2c1 [AZD2811] (first compound max 1 µM, 7x7, partner max 1 µM)	1	0.121	0.178	0.731	0.19	0.363	1	0.776	0.926	0.446	0.389	0.159	0.177	0.194	0.896	0.18	0.221	1	0.95	0.342
CN(CCO)CC[C@H](CSc1ccccc1)Nc1ccc(S(=O)(=O)NC(=O)c2ccc(N3CCC([C@@H](O)c4ccccc4-c4ccc(Cl)cc4)CC3)cc2)cc1S(=O)(=O)C(F)(F)F [AZD4320] + C[C@@H]1COCCN1C2=NC(=NC(=C2)C3(CC3)[S@](=N)(=O)C)C4=C5C=CNC5=NC=C4 [AZD6738] (first compound max 1 µM, 7x7, partner max 10 µM)	1	0.903	0.828	0.644	0.499	0.63	0.99	0.791	1	0.777	0.724	0.517	0.383	0.577	0.943	0.504	0.546	1	1	0.904
CN(CCO)CC[C@H](CSc1ccccc1)Nc1ccc(S(=O)(=O)NC(=O)c2ccc(N3CCC([C@@H](O)c4ccccc4-c4ccc(Cl)cc4)CC3)cc2)cc1S(=O)(=O)C(F)(F)F [AZD4320] + C[C@@H](Nc1cc(F)cc(F)c1)c1cc(C(=O)N(C)C)cc2c(=O)cc(N3CCOCC3)oc12 [AZD8186] (first compound max 1 µM, 7x7, partner max 3 µM)	1	0.589	0.338	0.652	0.469	0.615	0.967	0.678	0.97	0.401	0.382	0.581	0.507	0.37	0.886	0.383	0.386	1	0.899	0.434
CN(CCO)CC[C@H](CSc1ccccc1)Nc1ccc(S(=O)(=O)NC(=O)c2ccc(N3CCC([C@@H](O)c4ccccc4-c4ccc(Cl)cc4)CC3)cc2)cc1S(=O)(=O)C(F)(F)F [AZD4320] + Cc1cc2ncnn2cc1Nc1ncc2c(n1)n(C1CCOCC1)c(=O)n2C [AZD7648] (first compound max 1 µM, 7x7, partner max 10 µM)	1	0.156	0.111	0.295	0.153	0.36	0.964	0.653	0.746	0.369	0.238	0.119	0.32	0.165	0.829	0.311	0.174	1	0.841	0.127
CN(CCO)CC[C@H](CSc1ccccc1)Nc1ccc(S(=O)(=O)NC(=O)c2ccc(N3CCC([C@@H](O)c4ccccc4-c4ccc(Cl)cc4)CC3)cc2)cc1S(=O)(=O)C(F)(F)F [AZD4320] + Cn1cnc2c(F)c(Nc3ccc(Br)cc3Cl)c(C(=O)NOCCO)cc21 [Selumetinib] (first compound max 1 µM, 7x7, partner max 3 µM)	1	0.556	0.491	0.441	0.345	0.646	0.988	0.772	0.99	0.671	0.516	0.347	0.544	0.208	0.893	0.479	0.459	1	0.896	0.472
